Like-named read-outs stand apart in the source and are kept apart here.
Legend:
[1] = test system: gastric cancer cells; assay: Cellular diversion of gastric cancer cells (NBT); assay type: cell-based
Method: The gastric cancer cells and normal cells were cultured in PRMI 1640 medium supplement with 10% FCS serum. Other method is similar to example 8.

[2] = test system: Normal cells; assay: Apoptosis of normal cells; assay type: cell-based
Method: Cells ([…] were incubated in 10 ml IMDM plus […] heat-inactivated fetal calf serum. Samples were incubated for 24 hours with various concentrations of drugs. Control samples received the same amount of media, without drug addition. After 24 hours of incubation the samples were pelleted and fixed in ethanol […] for 15 minutes at 4° C.; after three washes in PBS, the cells were treated with RNase I 0.5 mg/ml for 15 minutes at 37° C. The cells were harvested by centrifugation and resuspended in 50 μg/ml propidium iodide in PBS. Analysis (upon acquisition of 10,000-20,000 events) was performed on a FACscan flow cytometer with the FL2 detector in logarithmic mode, using Lysis II software (Becton Dickinson). Apoptotic cells were located in the hypodiploid region of the histogram, due to chromosome condensation and fragmentation.
For evaluation of apoptosis by flow cytometry, cells were fixed and permeabilized in 1% paraformaldehyde and ice-cold 70% ethanol. Digoxigenin-dUTP was incorporated at the 3′OH ends of the fragmented DNA in the presence of terminal deoxynucleotidyltranserase, and the cells were incubated with FITC-labeled anti-digoxigenin-dUTP and with propidium iodide. Green (apoptotic cells) and orange (total DNA) fluorescence were measured with a FACScan flow cytometer and analyzed with LYSIS II and CELLFIT programs. Data were analyzed by Student's t-test. P values were considered significant when <0.05. […]

[3] = test system: L615 transplanted tumor; assay: Growth of transplanted tumor in mice; assay type: in vivo; conditions: intraperitoneally, sacrificed on the 12th day
Method: Male mice, weight 20-22 g, were used in the experiment. 1×10^7 tumor cells were injected to mouse and other drugs injected intraperitoneally began second day. All mice were sacrificed on the 12th day, isolated the tumor and weighed and calculated the inhibition rate of tumor weight.
The effect of other drugs and HHT on the growth of animal transplanted tumor as illustrated by the Table 6.20 mg/kg of other drugs could inhibit the growth of L615 transplanted tumor.

[4] = dog, in vivo
Excerpt: Twenty normal adult dogs which weight approximately 10 kg±1 kg used in experiments.
Most deaths were caused by cardiac dysfunction.

[5] = test system: TA98; assay: Salmonella mutagenicity assay TA98
Method: (§1) The method for detecting mutagenicity of HHT, with the Salmonella system that detects the reversion of the bacteria from His^− to His^+, is widely used.
(§2) The bacterial tester strains used for mutagenesis testing are TA97, TA98, TA100 and TA102. Mutagenesis testing method was done as described previously ^[77-88]. In brief, TA97, TA98, TA100 and TA102 were grown in agar gel culture. The petri plats (100×15 mm style) contain 30 ml with 2% glucose. The agar mixture was agitated vigorously and immediately poured into plates of minimal agar. The cultures were incubated at 37° C. in a dark and 5% CO2 in air for 48 hours. After 48 hours the colonies in both test and controls are counted. The presence of a background lawn of bacteria on the histidine-poor soft agar plate was used as an indication that gross toxic effects were absent. Mutagenicity assays were carried out at least in triplicate.
(§3) The range of spontaneous mutation rates for the individual strains, which were considered to be acceptable, was TA97 (100-170), TA98 (20-40) and TA100 (80-150).

[6] = test system: salmonella typhimurium strains TA97, TA98 and TA100; assay: Salmonella mutagenicity assay, overall conclusion; conditions: conclusion from Table 14
Method: as §1, §2, §3

Structure (SMILES): COC(=O)C[C@](O)(CCCC(C)(C)O)C(=O)O[C@@H]1C(OC)=C[C@]23CCCN2CCc2cc4c(cc2[C@H]13)OCO4 [HHT, Homoharringtonine]
- NBT (%) [1]: 58 ± 8.9 %
- Apoptosis (%) ([2]; HHT 10 ng/ml): 16.5 ± 2.0 %
- Apoptosis (%) ([2]; HHT 50 ng/ml): 18.5 ± 2.5 %
- Apoptosis (%) ([2]; HHT 100 ng/ml): 22.0 ± 3.5 %
- Apoptosis (%) ([2]; HHT 500 ng/ml): 29.5 ± 5.2 %
- Apoptosis (%) ([2]; Table 4, HHT (50 ng/ml) alone or in combination): 18.5 ± 2.5%
- Inhibition (%) of transplanted tumor (tumor weight) [3]: 68 ± 7.2%
- major target organs involved in toxicity [4]: limited to G.I. tract, heart and hematopoietic organs
- reversibility of toxicities [4]: completely reversible upon discontinuation of treatment
- Abnormality of ECG, ST-T ([4]; 0.1 mg/kg/day): −
- Anorexia ([4]; 0.1 mg/kg/day): +
- Cardiac necrosis ([4]; 0.1 mg/kg/day): −
- Diarrhea ([4]; 0.1 mg/kg/day): ±
- Hepatic ecchymosis ([4]; 0.1 mg/kg/day): −
- Hepatic fibrosis and cirrhosis ([4]; 0.1 mg/kg/day): −
- Hepatic necrosis ([4]; 0.1 mg/kg/day): −
- Marrow depression ([4]; 0.1 mg/kg/day): +
- Renal necrosis ([4]; 0.1 mg/kg/day): −
- Renal toxic nephropathy ([4]; 0.1 mg/kg/day): −
- Seminal depression ([4]; 0.1 mg/kg/day): −
- Spleen necrosis ([4]; 0.1 mg/kg/day): −
- Vomiting ([4]; 0.1 mg/kg/day): +
- Abnormality of ECG, ST-T ([4]; 0.2 mg/kg/day): ±
- Anorexia ([4]; 0.2 mg/kg/day): ++
- Cardiac necrosis ([4]; 0.2 mg/kg/day): −
- Diarrhea ([4]; 0.2 mg/kg/day): +
- Hepatic ecchymosis ([4]; 0.2 mg/kg/day): −
- Hepatic fibrosis and cirrhosis ([4]; 0.2 mg/kg/day): −
- Hepatic necrosis ([4]; 0.2 mg/kg/day): ±
- Marrow depression ([4]; 0.2 mg/kg/day): +
- Renal necrosis ([4]; 0.2 mg/kg/day): −
- Renal toxic nephropathy ([4]; 0.2 mg/kg/day): −
- Seminal depression ([4]; 0.2 mg/kg/day): −
- Spleen necrosis ([4]; 0.2 mg/kg/day): −
- Vomiting ([4]; 0.2 mg/kg/day): +
- Abnormality of ECG, ST-T ([4]; 0.3 mg/kg/day): +
- Anorexia ([4]; 0.3 mg/kg/day): +++
- Cardiac necrosis ([4]; 0.3 mg/kg/day): ±
- Diarrhea ([4]; 0.3 mg/kg/day): +
- Erythrocyte count ([4]; 0.3 mg/kg/day): 3.40 ×10^6/mm^3
- Hepatic ecchymosis ([4]; 0.3 mg/kg/day): ±
- Hepatic fibrosis and cirrhosis ([4]; 0.3 mg/kg/day): ±
- Hepatic necrosis ([4]; 0.3 mg/kg/day): +
- Marrow depression ([4]; 0.3 mg/kg/day): ++
- Renal necrosis ([4]; 0.3 mg/kg/day): ±
- Renal toxic nephropathy ([4]; 0.3 mg/kg/day): ±
- Seminal depression ([4]; 0.3 mg/kg/day): −
- Spleen necrosis ([4]; 0.3 mg/kg/day): ±
- Vomiting ([4]; 0.3 mg/kg/day): ++
- Number of His^+ revertants/plate ([5]; TA98 +S, 0.1 μg/plate): 34 ± 4 revertants/plate
- Number of His^+ revertants/plate ([5]; TA98 +S, 1 μg/plate): 32 ± 4 revertants/plate
- Number of His^+ revertants/plate ([5]; TA98 +S, 10 μg/plate): 36 ± 3 revertants/plate
- Number of His^+ revertants/plate ([5]; TA98 +S, 100 μg/plate): 34 ± 4 revertants/plate
- Number of His^+ revertants/plate ([5]; TA98 −S, 0.1 μg/plate): 29 ± 3 revertants/plate
- Number of His^+ revertants/plate ([5]; TA98 −S, 1 μg/plate): 30 ± 3 revertants/plate
- Number of His^+ revertants/plate ([5]; TA98 −S, 10 μg/plate): 38 ± 4 revertants/plate
- Number of His^+ revertants/plate ([5]; TA98 −S, 100 μg/plate): 32 ± 4 revertants/plate
- carcinogenic and mutagenic action [6]: no carcinogenic and mutagenic action

Source: patent US20070059385A1, “Safe pharmaceutical composition for treating and preventing cancer and method of use” (priority 2005, published 2007)
